Each structure is given as a SMILES string. Numbered stars: 1 amine (or outer) side, 2 acyl side, 3 side chain; on linkers, the order of the positions; unused ones are H or OH. Bridge positions count the residues as written; N and C are the ends. Square brackets hold non-standard residues; d marks the D form. Peptide text beside a SMILES is read from it. * marks the point of attachment. Bip(4'-COOH) = N[C@@H](Cc1ccc(-c2ccc(C(=O)O)cc2)cc1)C(=O)O; Bip(4'-NHAc) = CC(=O)Nc1ccc(-c2ccc(C[C@H](N)C(=O)O)cc2)cc1; X20 = CC(NC[C@H](N[*:1])C(=O)[*:2])=C1C(=O)CC(C)(C)CC1=O; Phe(3-CF3) = N[C@@H](Cc1cccc(C(F)(F)F)c1)C(=O)O; Ala(morpholin-4-yl) = N[C@@H](CN1CCOCC1)C(=O)O; Phe(4-COOH) = N[C@@H](Cc1ccc(C(=O)O)cc1)C(=O)O; Bip = N[C@@H](Cc1ccc(-c2ccccc2)cc1)C(=O)O; Abu(3R-NH2) = C[C@@H](N)[C@H](N)C(=O)O; Phe(3-Me) = Cc1cccc(C[C@H](N)C(=O)O)c1; Val(3-OH) = CC(C)(O)[C@H](N)C(=O)O; hArg = N=C(N)NCCCC[C@H](N)C(=O)O; hPhe = N[C@@H](CCc1ccccc1)C(=O)O; Cha = N[C@@H](CC1CCCCC1)C(=O)O; aThr = C[C@H](O)[C@H](N)C(=O)O; Carboxymethyl = O=C(O)C*; NMeA = CN[C@@H](C)C(=O)O; Orn = NCCC[C@H](N)C(=O)O; Dab = NCC[C@H](N)C(=O)O

Here are results for 13 molecules from patent publication US20240409585A1, “MACROCYCLIC IMMUNOMODULATORS” (priority 2021, published 2024).

One assay deals with T1, Alexa fluor-647 labeled human PD-L1-Ig binding to Jurkat cell line over-expressing human PD-1 (Homo sapiens, UniProt Q15116).
T1 construct: expressed in transfected cells; host or cells: Jurkat
T1 sequence (Q15116 25-288): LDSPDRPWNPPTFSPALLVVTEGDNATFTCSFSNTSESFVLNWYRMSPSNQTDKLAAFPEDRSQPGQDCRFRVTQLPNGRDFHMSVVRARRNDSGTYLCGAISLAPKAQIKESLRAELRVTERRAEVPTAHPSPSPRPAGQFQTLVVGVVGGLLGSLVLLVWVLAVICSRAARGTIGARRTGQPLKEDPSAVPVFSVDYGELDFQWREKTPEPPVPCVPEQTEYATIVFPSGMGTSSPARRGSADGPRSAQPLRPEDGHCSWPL
Put plainly: Jurkat-PD-1 Cell Binding High-Content Screening Assay (CBA): Method 3 (Alexa fluor-647 labeled PD-L1-Ig). The note with it: Jurkat-PD-1 cells, Alexa fluor-647 labeled PD-L1-Ig 177 nM; head μM; read-out: CBA Method 3 μM. The essentials: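 Jurkat cells over-expressing human PD-1 in RPMI/10% FCS were preincubated 2 h at 37 °C with compound, then exposed 1 h to Alexa fluor-647 labeled human PD-L1-Ig (177 nM final). Cells fixed in 4% paraformaldehyde with Hoechst 33342 and binding quantified by high-content imaging.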
Regarding `CC(C)[C@@H]1NC(=O)[C@H](Cc2c[nH]c3ccccc23)NC(=O)[C@H](CC(=O)O)NC(=O)[C@H](Cc2ccc(O)cc2)NC(=O)[C@H](CC2CCCCC2)NC(=O)CSC[C@@H](C(=O)N[C@@H](CCN)C(N)=O)NC(=O)[C@H]([C@H](C)O)NC(=O)[C@H](C(C)(C)O)NC(=O)[C@H](CC2CCCCC2)NC(=O)[C@H](CCC(=O)O)NC(=O)[C@@H](C)NC(=O)[C@H](C)N(C)C(=O)[C@H](C(C)C)NC(=O)[C@H](Cc2ccc(-c3ccccc3)cc2)NC1=O` [Example 5150] ({CH2CO}-[Cha]YDWV[Bip]V[NMeA][dA]E[Cha][Val(3-OH)][aThr]C[Dab]-NH2; thioether N-14), the IC50 was 0.06 µM. On to `CC(C)C[C@H]1NC(=O)[C@H](C)N(C)C(=O)[C@H](CCC(N)=O)NC(=O)[C@H](Cc2ccc(-c3ccccc3)cc2)NC(=O)[C@H](CCc2ccccc2)NC(=O)[C@H](Cc2cccc(C(F)(F)F)c2)NC(=O)[C@H](CC(=O)O)NC(=O)[C@H](Cc2ccc(OCC(=O)O)cc2)NC(=O)[C@H]([C@@H](C)N)NC(=O)CSC[C@@H](C(=O)N[C@@H](CCN)C(N)=O)NC(=O)[C@H](CCC(N)=O)NC(=O)[C@H](C(C)C)NC(=O)[C@H](CC2CCCCC2)NC(=O)[C@H](CCN)NC1=O` [Example 5223] ({CH2CO}-[Abu(3R-NH2)]Y(Carboxymethyl)D[Phe(3-CF3)][hPhe][Bip]Q[NMeA][dL][Dab][Cha]VQC[Dab]-NH2; thioether N-14), for which the IC50 came out at 0.05 µM.

As to `Cc1cccc(C[C@@H]2NC(=O)[C@H](CC(=O)O)NC(=O)[C@H](Cc3ccc(OCC(=O)O)cc3)NC(=O)[C@H](CC3CCCCC3)NC(=O)CSC[C@@H](C(=O)N[C@@H](CCN)C(N)=O)NC(=O)[C@H](Cc3cnc[nH]3)NC(=O)[C@H](C(C)(C)O)NC(=O)[C@H](CC3CCCCC3)NC(=O)[C@H](CCN)NC(=O)[C@@H](CC(C)C)NC(=O)[C@H](C)N(C)C(=O)[C@H](CCC(N)=O)NC(=O)[C@H](Cc3ccc(-c4ccccc4)cc3)NC(=O)[C@H](CCc3ccccc3)NC2=O)c1` [Example 5277] ({CH2CO}-[Cha]Y(Carboxymethyl)D[Phe(3-Me)][hPhe][Bip]Q[NMeA][dL][Dab][Cha][Val(3-OH)]HC[Dab]-NH2; thioether N-14), the IC50 was 0.03 µM. Regarding `Cc1cccc(C[C@@H]2NC(=O)[C@H](CC(=O)O)NC(=O)[C@H](Cc3ccc(C(=O)O)cc3)NC(=O)[C@H](CN3CCOCC3)NC(=O)CSC[C@@H](C(=O)N[C@@H](CCN)C(N)=O)NC(=O)[C@H](CCC(N)=O)NC(=O)[C@H](C(C)C)NC(=O)[C@H](CC3CCCCC3)NC(=O)[C@H](CCN)NC(=O)[C@@H](CC(C)C)NC(=O)[C@H](C)N(C)C(=O)[C@H](Cc3ccc(C(=O)O)cc3)NC(=O)[C@H](Cc3ccc(-c4ccccc4)cc3)NC(=O)[C@H](Cc3ccc(C(=O)O)cc3)NC2=O)c1` [Example 5260] ({CH2CO}-[Ala(morpholin-4-yl)][Phe(4-COOH)]D[Phe(3-Me)][Phe(4-COOH)][Bip][Phe(4-COOH)][NMeA][dL][Dab][Cha]VQC[Dab]-NH2; thioether N-14), the IC50 was found to be 0.09 µM. Same read-out and setting: the same measure for `Cc1cccc(C[C@@H]2NC(=O)[C@H](CC(=O)O)NC(=O)[C@H](Cc3ccc(OCC(=O)O)cc3)NC(=O)[C@H](CCCCNC(=N)N)NC(=O)CSC[C@@H](C(=O)N[C@@H](CCN)C(N)=O)NC(=O)[C@H](CCC(=O)O)NC(=O)[C@H](C(C)C)NC(=O)[C@H](CC3CCCCC3)NC(=O)[C@H](CCN)NC(=O)[C@@H](CC(C)C)NC(=O)[C@H](C)N(C)C(=O)[C@H](CCC(N)=O)NC(=O)[C@H](Cc3ccc(-c4ccccc4)cc3)NC(=O)[C@H](CCc3ccccc3)NC2=O)c1` [Example 5283] ({CH2CO}-[hArg]Y(Carboxymethyl)D[Phe(3-Me)][hPhe][Bip]Q[NMeA][dL][Dab][Cha]VEC[Dab]-NH2; thioether N-14): 0.01 µM; for `CC(NC[C@@H]1NC(=O)[C@H](Cc2ccc(C(=O)O)cc2)NC(=O)[C@H](CN2CCOCC2)NC(=O)CSC[C@@H](C(=O)N[C@@H](CCN)C(N)=O)NC(=O)[C@H](CCCN)NC(=O)[C@H](C(C)C)NC(=O)[C@H](CC2CCCCC2)NC(=O)[C@H](CCN)NC(=O)[C@@H](CC(C)C)NC(=O)[C@H](C)N(C)C(=O)[C@H](CCC(N)=O)NC(=O)[C@H](Cc2ccc(-c3ccccc3)cc2)NC(=O)[C@H](Cc2ccc(C(=O)O)cc2)NC(=O)[C@H](Cc2cccc(C(F)(F)F)c2)NC1=O)=C1C(=O)CC(C)(C)CC1=O` [Example 5105] ({CH2CO}-[Ala(morpholin-4-yl)][Phe(4-COOH)][X20][Phe(3-CF3)][Phe(4-COOH)][Bip]Q[NMeA][dL][Dab][Cha]V[Orn]C[Dab]-NH2; thioether N-14): 0.02 µM.

Staying with this assay, now noted: Jurkat-PD-1 cells, Alexa fluor-647 labeled PD-L1-Ig 177 nM; nM; read-out: CBA Method 3.
Take `CC(=O)Nc1ccc(-c2ccc(C[C@@H]3NC(=O)[C@H](Cc4cccc(C)c4)NC(=O)[C@H](CC(=O)O)NC(=O)[C@H](Cc4ccc(-c5ccc(C(=O)O)cc5)cc4)NC(=O)[C@H](CN4CCOCC4)NC(=O)CSC[C@@H](C(=O)N[C@@H](CCN)C(N)=O)NC(=O)[C@H](CCC(=O)O)NC(=O)[C@H](C(C)C)NC(=O)[C@H](CC4CCCCC4)NC(=O)[C@H](Cc4cnc[nH]4)NC(=O)[C@@H](CC(C)C)NC(=O)[C@H](C)N(C)C(=O)[C@H](Cc4ccc(C(=O)O)cc4)NC(=O)[C@H](Cc4ccc(-c5ccccc5)cc4)NC3=O)cc2)cc1` [Example 5253] ({CH2CO}-[Ala(morpholin-4-yl)][Bip(4'-COOH)]D[Phe(3-Me)][Bip(4'-NHAc)][Bip][Phe(4-COOH)][NMeA][dL]H[Cha]VEC[Dab]-NH2; thioether N-14): the IC50 came out at 0.0028 µM. For the molecule `Cc1cccc(C[C@@H]2NC(=O)[C@H](CC(=O)O)NC(=O)[C@H](Cc3ccc(OCC(=O)O)cc3)NC(=O)[C@H](C(C)(C)O)NC(=O)CSC[C@@H](C(=O)N[C@@H](CCN)C(N)=O)NC(=O)[C@H](CCCN)NC(=O)[C@H](C(C)C)NC(=O)[C@H](CC3CCCCC3)NC(=O)[C@H](CCN)NC(=O)[C@@H](CC(C)C)NC(=O)[C@H](C)N(C)C(=O)[C@H](CCC(N)=O)NC(=O)[C@H](Cc3ccc(-c4ccccc4)cc3)NC(=O)[C@H](Cc3ccc(C(=O)O)cc3)NC2=O)c1` [Example 5275] ({CH2CO}-[Val(3-OH)]Y(Carboxymethyl)D[Phe(3-Me)][Phe(4-COOH)][Bip]Q[NMeA][dL][Dab][Cha]V[Orn]C[Dab]-NH2; thioether N-14), the IC50 amounted to 0.0016 µM. In the case of `Cc1cccc(C[C@@H]2NC(=O)[C@H](CC(=O)O)NC(=O)[C@H](Cc3ccc(OCC(=O)O)cc3)NC(=O)[C@H](Cc3cnc[nH]3)NC(=O)CSC[C@@H](C(=O)N[C@@H](CCN)C(N)=O)NC(=O)[C@H](CCCN)NC(=O)[C@H](C(C)C)NC(=O)[C@H](CC3CCCCC3)NC(=O)[C@H](CCN)NC(=O)[C@@H](CC(C)C)NC(=O)[C@H](C)N(C)C(=O)[C@H](CCC(N)=O)NC(=O)[C@H](Cc3ccc(-c4ccccc4)cc3)NC(=O)[C@H](Cc3ccc(C(=O)O)cc3)NC2=O)c1` [Example 5274] ({CH2CO}-HY(Carboxymethyl)D[Phe(3-Me)][Phe(4-COOH)][Bip]Q[NMeA][dL][Dab][Cha]V[Orn]C[Dab]-NH2; thioether N-14), the IC50 came out at 0.006 µM. On the same count and under the same terms, under `CC(C)C[C@H]1NC(=O)[C@H](C)N(C)C(=O)[C@H](Cc2ccc(C(=O)O)cc2)NC(=O)[C@H](Cc2ccc(-c3ccccc3)cc2)NC(=O)[C@H](Cc2ccc(C(=O)O)cc2)NC(=O)[C@H](Cc2cccc(C(F)(F)F)c2)NC(=O)[C@H](CC(=O)O)NC(=O)[C@H](Cc2ccc(C(=O)O)cc2)NC(=O)[C@H](CC2CCCCC2)NC(=O)CSC[C@@H](C(=O)N[C@@H](CCN)C(N)=O)NC(=O)[C@H](CCC(=O)O)NC(=O)[C@H](C(C)C)NC(=O)[C@H](CC2CCCCC2)NC(=O)[C@H](CCN)NC1=O` [Example 5195] ({CH2CO}-[Cha][Phe(4-COOH)]D[Phe(3-CF3)][Phe(4-COOH)][Bip][Phe(4-COOH)][NMeA][dL][Dab][Cha]VEC[Dab]-NH2; thioether N-14) stands 0.0017 µM; under `CC(=O)Nc1ccc(-c2ccc(C[C@@H]3NC(=O)[C@H](Cc4cccc(C(F)(F)F)c4)NC(=O)[C@H](CC(=O)O)NC(=O)[C@H](Cc4ccc(C(=O)O)cc4)NC(=O)[C@H](CN4CCOCC4)NC(=O)CSC[C@@H](C(=O)N[C@@H](CCN)C(N)=O)NC(=O)[C@H](CCC(=O)O)NC(=O)[C@H](C(C)C)NC(=O)[C@H](CC4CCCCC4)NC(=O)[C@H](CCN)NC(=O)[C@@H](CC(C)C)NC(=O)[C@H](C)N(C)C(=O)[C@H](Cc4ccc(C(=O)O)cc4)NC(=O)[C@H](Cc4ccc(-c5ccccc5)cc4)NC3=O)cc2)cc1` [Example 5149] ({CH2CO}-[Ala(morpholin-4-yl)][Phe(4-COOH)]D[Phe(3-CF3)][Bip(4'-NHAc)][Bip][Phe(4-COOH)][NMeA][dL][Dab][Cha]VEC[Dab]-NH2; thioether N-14), 0.0059 µM; under `CC(C)C[C@H]1NC(=O)[C@H](C)N(C)C(=O)[C@H](CCC(N)=O)NC(=O)[C@H](Cc2ccc(-c3ccccc3)cc2)NC(=O)[C@H](CCc2ccccc2)NC(=O)[C@H](Cc2cccc(C(F)(F)F)c2)NC(=O)[C@H](CC(=O)O)NC(=O)[C@H](Cc2ccc(O)cc2)NC(=O)[C@H](CC2CCCCC2)NC(=O)CSC[C@@H](C(=O)N[C@@H](CCN)C(N)=O)NC(=O)[C@H](CCC(N)=O)NC(=O)[C@H](C(C)C)NC(=O)[C@H](CC2CCCCC2)NC(=O)[C@H](CCN)NC1=O` [Example 5241] ({CH2CO}-[Cha]YD[Phe(3-CF3)][hPhe][Bip]Q[NMeA][dL][Dab][Cha]VQC[Dab]-NH2; thioether N-14), 0.0004 µM. Same read-out and setting: under `Cc1cccc(C[C@@H]2NC(=O)CSC[C@@H](C(=O)N[C@@H](CCN)C(N)=O)NC(=O)[C@H](CCCN)NC(=O)[C@H](C(C)C)NC(=O)[C@H](CC3CCCCC3)NC(=O)[C@H](CCN)NC(=O)[C@@H](CC(C)C)NC(=O)[C@H](C)N(C)C(=O)[C@H](CCC(N)=O)NC(=O)[C@H](Cc3ccc(-c4ccccc4)cc3)NC(=O)[C@H](Cc3ccc(C(=O)O)cc3)NC(=O)[C@H](Cc3cccc(C)c3)NC(=O)[C@H](CC(=O)O)NC(=O)[C@H](Cc3ccc(OCC(=O)O)cc3)NC2=O)c1` [Example 5273] ({CH2CO}-[Phe(3-Me)]Y(Carboxymethyl)D[Phe(3-Me)][Phe(4-COOH)][Bip]Q[NMeA][dL][Dab][Cha]V[Orn]C[Dab]-NH2; thioether N-14) stands 0.0005 µM.
